Measured values: patent publication US20110212100A1, “METHODS FOR MODULATING DEVELOPMENT AND EXPANSION OF IL-17 EXPRESSING CELLS” (priority 2007, published 2011)

Experiments:
[1] = system: CD4+ CD25− T cells activated in Th17-priming conditions; type: cell-based, mouse; details: 10 nM HF vs MAZ1310, mean ± SD, triplicate
[2] = system: amino acid response (AAR) pathway: eIF2α, ATF4; assay: eIF2α phosphorylation and ATF4 protein levels in T cells (immunoblot); type: cell-based, mouse
Experimental: Whole cell lysates were prepared 4 hours-post TCR activation and immunoblotting was performed with the indicated antibodies. ATF4 protein is indicated by arrowhead. NS-non-specific band.
FIG. 12E is an illustration depicting immunoblot analysis of purified CD4^+ CD25^− T cells activated through the TCR for the indicated times without exogenous cytokines in the presence of either 10 nM MAZ1310 or 10 nM HF as indicated. Whole cells lysates were prepared during the timecourse and immunoblotting was performed.
Western blotting: Whole cell lysates were generated from T cells activated for the indicated times. For STAT3 and Smad2/3 western blots cells were harvested, washed in PBS and lysed in 50 mM Tris, pH 7.4, 0.1% SDS, 1% Triton-X100, 140 mM NaCl, 1 mM EDTA, 1 mM EGTA supplemented with protease inhibitors tablets (Roche-Germany), 1 mM NaF and 1 mM Na3VO4. For eIF2α and ATF4 western blots, cells were harvested as above and lysed in 50 mM Tris, pH 7.4, 2% SDS, 20% glycerol and 2 mM EDTA supplemented with protease and phosphatase inhibitors as above. All lysates were cleared via centrifugation and 15-30 μg of protein was resolved by SDS-PAGE. Protein was transferred to nitrocellulose membranes, blocked and blotted using specific antibodies. Antibodies used for western blot analysis were anti-phospho-Smad2, anti-STAT3 (pY705), anti-STAT3, anti-eIF2α^pS51, anti-eIF2α, anti-GCN2^pT898, anti-GCN2 (all from cell signaling technology, Danvers, Mass.). Anti-ATF4/CREB2 and anti-β-actin were purchased from Santa Cruz biotechnology (Santa Cruz, Calif.). HRP-conjugated secondary antibodies were all purchased from Sigma, with the exception of HRP-conjugated anti-armenian hamster antibody (Jackson Immunoresearch—West Grove, Pa.).
To address directly whether HF activates the AAR pathway, eIF2a phosphorylation and ATF4 protein levels in HF-treated T cells were examined. HF induced detectable eIF2α phosphorylation at 2.5 nM, and this effect plateaued at 5-10 nM HF (FIG. 12D). […] AAR activation was a general consequence of HF treatment: HF induced eIF2α phosphorylation not only in T cells activated in Th17-priming conditions, but also in resting naïve T cells and T cells activated in ThN, Th1, Th2 and iTreg polarizing conditions (FIG. 12F). […] (Rathmell, J. C., Elstrom, R. L., Cinalli, R. M. & Thompson, C. B. Activated Akt promotes increased resting T cell size, CD28-independent T cell growth, and development of autoimmunity and lymphoma. Eur J Immunol 33, 2223-32 (2003)). Thus, the rapid activation of the AAR pathway by HF underlies both its selective inhibition of Th17 differentiation and its effects on fibroblasts. (Pines, M. & Nagler, A. Halofuginone: a novel antifibrotic therapy. Gen Pharmacol 30, 445-50 (1998)).

O=C(CC1NCCCC1O)Cn1cnc2cc(Br)c(Cl)cc2c1=O (racemic) [HF, 7-bromo-6-chloro-3-[3-(3-hydroxy-2-piperidinyl)-2-oxopropyl]-4(3H)-quinazolinone]
Aars transcript, fold increase HF vs. MAZ1310-3 hr ([1]; 3 hr): 2.7 ± 0.4 fold | Aff1 transcript, fold increase HF vs. MAZ1310-3 hr ([1]; 3 hr): 2.3 ± 0.4 fold | Aldh18a1 transcript, fold increase HF vs. MAZ1310-3 hr ([1]; 3 hr): 2.1 ± 0.5 fold | Asns transcript, fold increase HF vs. MAZ1310-3 hr ([1]; 3 hr): 6.1 ± 1.2 fold | Atf3 transcript, fold increase HF vs. MAZ1310-3 hr ([1]; 3 hr): 3.0 ± 0.1 fold | Atf5 transcript, fold increase HF vs. MAZ1310-3 hr ([1]; 3 hr): 2.4 ± 0.1 fold | Cars transcript, fold increase HF vs. MAZ1310-3 hr ([1]; 3 hr): 2.2 ± 0.4 fold | Cd274 transcript, fold increase HF vs. MAZ1310-3 hr ([1]; 3 hr): 2.1 ± 0.2 fold | Cebpb transcript, fold increase HF vs. MAZ1310-3 hr ([1]; 3 hr): 3.9 ± 0.6 fold | Cebpg transcript, fold increase HF vs. MAZ1310-3 hr ([1]; 3 hr): 2.5 ± 0.5 fold | Chd2 transcript, fold increase HF vs. MAZ1310-3 hr ([1]; 3 hr): 2.2 ± 0.3 fold | Cldn12 transcript, fold increase HF vs. MAZ1310-3 hr ([1]; 3 hr): 3.2 ± 0.7 fold | Clic4 transcript, fold increase HF vs. MAZ1310-3 hr ([1]; 3 hr): 2.4 ± 0.2 fold | Cth transcript, fold increase HF vs. MAZ1310-3 hr ([1]; 3 hr): 2.2 ± 0.7 fold | Cxcl10 transcript, fold increase HF vs. MAZ1310-3 hr ([1]; 3 hr): 2.1 ± 0.3 fold | D8Ertd56e transcript, fold increase HF vs. MAZ1310-3 hr ([1]; 3 hr): 2.1 ± 0.3 fold | Ddit3 transcript, fold increase HF vs. MAZ1310-3 hr ([1]; 3 hr): 5.6 ± 1.1 fold | Et4Ebp1 transcript, fold increase HF vs. MAZ1310-3 hr ([1]; 3 hr): 6.8 ± 1.8 fold | Gpt2 transcript, fold increase HF vs. MAZ1310-3 hr ([1]; 3 hr): 10.0 ± 1.2 fold | Herpud1 transcript, fold increase HF vs. MAZ1310-3 hr ([1]; 3 hr): 2.4 ± 0.3 fold | Icam1 transcript, fold increase HF vs. MAZ1310-3 hr ([1]; 3 hr): 2.0 ± 0.1 fold | Irf1 transcript, fold increase HF vs. MAZ1310-3 hr ([1]; 3 hr): 2.0 ± 0.3 fold | Lers transcript, fold increase HF vs. MAZ1310-3 hr ([1]; 3 hr): 2.3 ± 0.3 fold | Mpa2l transcript, fold increase HF vs. MAZ1310-3 hr ([1]; 3 hr): 2.3 ± 0.3 fold | Ncoa7 transcript, fold increase HF vs. MAZ1310-3 hr ([1]; 3 hr): 3.0 ± 0.3 fold | Nfkbiz transcript, fold increase HF vs. MAZ1310-3 hr ([1]; 3 hr): 2.0 ± 0.3 fold | Past1 transcript, fold increase HF vs. MAZ1310-3 hr ([1]; 3 hr): 2.1 ± 0.5 fold | Pck2 transcript, fold increase HF vs. MAZ1310-3 hr ([1]; 3 hr): 4.9 ± 0.8 fold | Pdcd1lg2 transcript, fold increase HF vs. MAZ1310-3 hr ([1]; 3 hr): 3.2 ± 0.7 fold | Phgdh transcript, fold increase HF vs. MAZ1310-3 hr ([1]; 3 hr): 3.8 ± 0.9 fold | Psph transcript, fold increase HF vs. MAZ1310-3 hr ([1]; 3 hr): 3.5 ± 0.4 fold | Pvr transcript, fold increase HF vs. MAZ1310-3 hr ([1]; 3 hr): 2.0 ± 0.3 fold | Pycr1 transcript, fold increase HF vs. MAZ1310-3 hr ([1]; 3 hr): 4.6 ± 0.7 fold | Pycs transcript, fold increase HF vs. MAZ1310-3 hr ([1]; 3 hr): 2.1 ± 0.2 fold | Sars1 transcript, fold increase HF vs. MAZ1310-3 hr ([1]; 3 hr): 2.0 ± 0.3 fold | Sesn2 transcript, fold increase HF vs. MAZ1310-3 hr ([1]; 3 hr): 2.6 ± 0.3 fold | Slamf7 transcript, fold increase HF vs. MAZ1310-3 hr ([1]; 3 hr): 2.2 ± 0.4 fold | Slc1a4 transcript, fold increase HF vs. MAZ1310-3 hr ([1]; 3 hr): 3.2 ± 0.9 fold | Slc6a9 transcript, fold increase HF vs. MAZ1310-3 hr ([1]; 3 hr): 2.4 ± 0.3 fold | Slc7a3 transcript, fold increase HF vs. MAZ1310-3 hr ([1]; 3 hr): 2.0 ± 0.2 fold | Slc14a1 transcript, fold increase HF vs. MAZ1310-3 hr ([1]; 3 hr): 2.0 ± 0.1 fold | Trib3 transcript, fold increase HF vs. MAZ1310-3 hr ([1]; 3 hr): 7.1 ± 2.0 fold | Trim12 transcript, fold increase HF vs. MAZ1310-3 hr ([1]; 3 hr): 2.4 ± 0.1 fold | Vegfa transcript, fold increase HF vs. MAZ1310-3 hr ([1]; 3 hr): 3.2 ± 0.2 fold | Xist transcript, fold increase HF vs. MAZ1310-3 hr ([1]; 3 hr): 3.5 ± 1.7 fold | Aars transcript, fold increase HF vs. MAZ1310-6 hr ([1]; 6 hr): 2.6 ± 0.2 fold | Aff1 transcript, fold increase HF vs. MAZ1310-6 hr ([1]; 6 hr): 2.6 ± 0.3 fold | Aldh18a1 transcript, fold increase HF vs. MAZ1310-6 hr ([1]; 6 hr): 2.7 ± 0.2 fold | Asns transcript, fold increase HF vs. MAZ1310-6 hr ([1]; 6 hr): 7.1 ± 0.5 fold | Atf3 transcript, fold increase HF vs. MAZ1310-6 hr ([1]; 6 hr): 3.2 ± 0.5 fold | Atf5 transcript, fold increase HF vs. MAZ1310-6 hr ([1]; 6 hr): 8.9 ± 1.0 fold | Cars transcript, fold increase HF vs. MAZ1310-6 hr ([1]; 6 hr): 2.2 ± 0.3 fold | Cd274 transcript, fold increase HF vs. MAZ1310-6 hr ([1]; 6 hr): 2.0 ± 0.1 fold | Cebpb transcript, fold increase HF vs. MAZ1310-6 hr ([1]; 6 hr): 8.0 ± 0.2 fold | Cebpg transcript, fold increase HF vs. MAZ1310-6 hr ([1]; 6 hr): 3.1 ± 0.5 fold | Chd2 transcript, fold increase HF vs. MAZ1310-6 hr ([1]; 6 hr): 2.5 ± 0.5 fold | Cldn12 transcript, fold increase HF vs. MAZ1310-6 hr ([1]; 6 hr): 4.6 ± 0.5 fold | Clic4 transcript, fold increase HF vs. MAZ1310-6 hr ([1]; 6 hr): 2.8 ± 0.2 fold | Cth transcript, fold increase HF vs. MAZ1310-6 hr ([1]; 6 hr): 16.0 ± 1.6 fold | Cxcl10 transcript, fold increase HF vs. MAZ1310-6 hr ([1]; 6 hr): 2.1 ± 0.1 fold | D8Ertd56e transcript, fold increase HF vs. MAZ1310-6 hr ([1]; 6 hr): 3.1 ± 0.8 fold | Ddit3 transcript, fold increase HF vs. MAZ1310-6 hr ([1]; 6 hr): 5.0 ± 0.7 fold | Et4Ebp1 transcript, fold increase HF vs. MAZ1310-6 hr ([1]; 6 hr): 5.3 ± 0.3 fold | Gpt2 transcript, fold increase HF vs. MAZ1310-6 hr ([1]; 6 hr): 16.7 ± 2.2 fold | Herpud1 transcript, fold increase HF vs. MAZ1310-6 hr ([1]; 6 hr): 2.7 ± 0.1 fold | Icam1 transcript, fold increase HF vs. MAZ1310-6 hr ([1]; 6 hr): 2.8 ± 0.3 fold | Irf1 transcript, fold increase HF vs. MAZ1310-6 hr ([1]; 6 hr): 2.6 ± 0.2 fold | Lers transcript, fold increase HF vs. MAZ1310-6 hr ([1]; 6 hr): 2.1 ± 0.0 fold | Mpa2l transcript, fold increase HF vs. MAZ1310-6 hr ([1]; 6 hr): 7.3 ± 1.7 fold | Ncoa7 transcript, fold increase HF vs. MAZ1310-6 hr ([1]; 6 hr): 3.2 ± 0.5 fold | Nfkbiz transcript, fold increase HF vs. MAZ1310-6 hr ([1]; 6 hr): 1.9 ± 0.3 fold | Past1 transcript, fold increase HF vs. MAZ1310-6 hr ([1]; 6 hr): 2.6 ± 0.0 fold | Pck2 transcript, fold increase HF vs. MAZ1310-6 hr ([1]; 6 hr): 7.4 ± 0.9 fold | Pdcd1lg2 transcript, fold increase HF vs. MAZ1310-6 hr ([1]; 6 hr): 2.5 ± 0.3 fold | Phgdh transcript, fold increase HF vs. MAZ1310-6 hr ([1]; 6 hr): 4.2 ± 0.3 fold | Psph transcript, fold increase HF vs. MAZ1310-6 hr ([1]; 6 hr): 3.4 ± 0.3 fold | Pvr transcript, fold increase HF vs. MAZ1310-6 hr ([1]; 6 hr): 2.0 ± 0.1 fold | Pycr1 transcript, fold increase HF vs. MAZ1310-6 hr ([1]; 6 hr): 6.6 ± 0.4 fold | Pycs transcript, fold increase HF vs. MAZ1310-6 hr ([1]; 6 hr): 2.3 ± 0.1 fold | Sars1 transcript, fold increase HF vs. MAZ1310-6 hr ([1]; 6 hr): 2.3 ± 0.1 fold | Sesn2 transcript, fold increase HF vs. MAZ1310-6 hr ([1]; 6 hr): 2.3 ± 0.2 fold | Slamf7 transcript, fold increase HF vs. MAZ1310-6 hr ([1]; 6 hr): 2.1 ± 0.2 fold | Slc1a4 transcript, fold increase HF vs. MAZ1310-6 hr ([1]; 6 hr): 4.6 ± 0.4 fold | Slc6a9 transcript, fold increase HF vs. MAZ1310-6 hr ([1]; 6 hr): 5.7 ± 0.6 fold | Slc7a3 transcript, fold increase HF vs. MAZ1310-6 hr ([1]; 6 hr): 6.5 ± 0.9 fold | Slc14a1 transcript, fold increase HF vs. MAZ1310-6 hr ([1]; 6 hr): 6.6 ± 0.4 fold | Trib3 transcript, fold increase HF vs. MAZ1310-6 hr ([1]; 6 hr): 18.5 ± 8.5 fold | Trim12 transcript, fold increase HF vs. MAZ1310-6 hr ([1]; 6 hr): 4.9 ± 0.7 fold | Vegfa transcript, fold increase HF vs. MAZ1310-6 hr ([1]; 6 hr): 5.8 ± 0.5 fold | Xist transcript, fold increase HF vs. MAZ1310-6 hr ([1]; 6 hr): 2.1 ± 0.7 fold | time at which eIF2α phosphorylation reached maximum levels ([2]; 10 nM HF): ≤ 2 h | time until which ATF4 protein continued to accumulate ([2]; 10 nM HF): 4 h | concentration at which eIF2α phosphorylation plateaued ([2]; 4 hours post TCR activation): 5 to 10 nM | concentration giving highest ATF4 expression levels ([2]; 4 hours post TCR activation): 5 to 10 nM | concentration inducing detectable eIF2α phosphorylation ([2]; 4 hours post TCR activation): 2.5 nM | higher concentrations at which ATF4 expression levels were reduced ([2]; 4 hours post TCR activation): 20 to 40 nM
